According to ChEMBL document CHEMBL1136542, “Discovery of N-hydroxy-2-(2-oxo-3-pyrrolidinyl)acetamides as potent and selective inhibitors of tumor necrosis factor-alpha converting enzyme (TACE)” (Bioorg Med Chem Lett, 2003):
pIC50, pKi: −log10 of the molar value.

Assays:
[1] = target: Disintegrin and metalloproteinase domain-containing protein 17 (Homo sapiens, UniProt P78536); assay: Inhibition of TNF-alpha production from LPS stimulated human whole blood.; type: functional, tissue-based
[2] = target: Matrix metalloproteinase-9 (Homo sapiens, UniProt P14780); assay: In vitro inhibition of Matrix metalloprotease-9
Interstitial collagenase = target: T1, Interstitial collagenase (Homo sapiens, UniProt P03956); assay: In vitro inhibition of Matrix metalloprotease-1.
T1 sequence (P03956 whole entry): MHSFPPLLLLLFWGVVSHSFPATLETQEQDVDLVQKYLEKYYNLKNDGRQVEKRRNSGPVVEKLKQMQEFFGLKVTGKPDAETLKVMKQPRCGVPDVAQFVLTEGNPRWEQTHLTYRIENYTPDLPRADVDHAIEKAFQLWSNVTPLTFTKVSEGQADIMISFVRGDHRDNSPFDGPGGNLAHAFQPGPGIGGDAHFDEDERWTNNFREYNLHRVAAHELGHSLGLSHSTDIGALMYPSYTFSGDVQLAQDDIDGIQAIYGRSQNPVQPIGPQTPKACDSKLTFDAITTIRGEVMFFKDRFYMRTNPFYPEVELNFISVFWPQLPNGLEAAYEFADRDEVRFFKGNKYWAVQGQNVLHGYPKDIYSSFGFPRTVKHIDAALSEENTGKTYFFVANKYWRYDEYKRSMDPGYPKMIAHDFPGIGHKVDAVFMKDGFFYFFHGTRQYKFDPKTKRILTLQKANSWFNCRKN

[3] = target: Disintegrin and metalloproteinase domain-containing protein 17 (Sus scrofa, UniProt O77636); assay: In vitro inhibition of TNF-alpha converting enzyme.
[4] = target: 72 kDa type IV collagenase (Homo sapiens, UniProt P08253)
Chain of 72 kDa type IV collagenase (P08253 whole entry): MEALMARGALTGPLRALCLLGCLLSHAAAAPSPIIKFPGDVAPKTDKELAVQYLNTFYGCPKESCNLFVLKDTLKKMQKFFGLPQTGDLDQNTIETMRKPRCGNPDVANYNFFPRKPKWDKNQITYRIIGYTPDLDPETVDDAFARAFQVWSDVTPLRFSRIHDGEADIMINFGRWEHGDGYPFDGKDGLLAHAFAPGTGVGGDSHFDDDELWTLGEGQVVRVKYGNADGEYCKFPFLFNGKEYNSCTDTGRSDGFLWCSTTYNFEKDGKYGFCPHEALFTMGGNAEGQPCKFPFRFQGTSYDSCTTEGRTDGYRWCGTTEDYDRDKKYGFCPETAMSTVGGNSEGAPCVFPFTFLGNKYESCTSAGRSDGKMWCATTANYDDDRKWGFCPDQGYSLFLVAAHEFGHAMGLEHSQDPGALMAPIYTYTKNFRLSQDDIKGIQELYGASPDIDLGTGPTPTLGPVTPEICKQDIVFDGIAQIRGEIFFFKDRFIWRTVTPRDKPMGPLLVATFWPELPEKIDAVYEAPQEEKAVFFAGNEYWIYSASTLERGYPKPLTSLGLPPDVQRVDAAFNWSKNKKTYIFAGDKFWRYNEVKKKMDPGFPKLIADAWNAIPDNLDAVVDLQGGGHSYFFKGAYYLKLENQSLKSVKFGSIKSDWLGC
Description: In vitro inhibition of Matrix metalloprotease-2

Chain of Disintegrin and metalloproteinase domain-containing protein 17 (Sus scrofa, UniProt O77636) (O77636 whole entry, the tested form may be a part): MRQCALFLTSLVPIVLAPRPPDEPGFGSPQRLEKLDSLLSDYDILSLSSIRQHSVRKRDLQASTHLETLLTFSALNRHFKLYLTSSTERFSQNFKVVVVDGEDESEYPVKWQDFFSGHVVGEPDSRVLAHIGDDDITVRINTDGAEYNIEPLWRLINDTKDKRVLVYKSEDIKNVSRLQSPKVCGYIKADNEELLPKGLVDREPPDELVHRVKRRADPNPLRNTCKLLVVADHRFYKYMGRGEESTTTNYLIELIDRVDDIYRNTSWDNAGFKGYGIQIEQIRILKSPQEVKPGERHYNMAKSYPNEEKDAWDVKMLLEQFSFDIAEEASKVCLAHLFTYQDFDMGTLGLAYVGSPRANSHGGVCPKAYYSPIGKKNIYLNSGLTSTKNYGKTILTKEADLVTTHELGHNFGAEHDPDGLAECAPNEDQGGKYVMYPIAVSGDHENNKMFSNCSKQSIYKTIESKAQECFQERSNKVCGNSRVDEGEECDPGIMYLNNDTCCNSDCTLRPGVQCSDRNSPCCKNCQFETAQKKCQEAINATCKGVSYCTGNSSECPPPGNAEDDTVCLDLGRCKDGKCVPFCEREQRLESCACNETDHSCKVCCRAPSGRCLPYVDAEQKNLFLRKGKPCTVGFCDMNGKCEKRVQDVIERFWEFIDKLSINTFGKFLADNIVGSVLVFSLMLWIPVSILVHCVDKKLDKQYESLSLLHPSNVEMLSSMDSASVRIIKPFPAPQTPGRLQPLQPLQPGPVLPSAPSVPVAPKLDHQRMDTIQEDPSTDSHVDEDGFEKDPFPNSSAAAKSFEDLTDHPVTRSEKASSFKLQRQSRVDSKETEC
Chain of Matrix metalloproteinase-9 (P14780 whole entry): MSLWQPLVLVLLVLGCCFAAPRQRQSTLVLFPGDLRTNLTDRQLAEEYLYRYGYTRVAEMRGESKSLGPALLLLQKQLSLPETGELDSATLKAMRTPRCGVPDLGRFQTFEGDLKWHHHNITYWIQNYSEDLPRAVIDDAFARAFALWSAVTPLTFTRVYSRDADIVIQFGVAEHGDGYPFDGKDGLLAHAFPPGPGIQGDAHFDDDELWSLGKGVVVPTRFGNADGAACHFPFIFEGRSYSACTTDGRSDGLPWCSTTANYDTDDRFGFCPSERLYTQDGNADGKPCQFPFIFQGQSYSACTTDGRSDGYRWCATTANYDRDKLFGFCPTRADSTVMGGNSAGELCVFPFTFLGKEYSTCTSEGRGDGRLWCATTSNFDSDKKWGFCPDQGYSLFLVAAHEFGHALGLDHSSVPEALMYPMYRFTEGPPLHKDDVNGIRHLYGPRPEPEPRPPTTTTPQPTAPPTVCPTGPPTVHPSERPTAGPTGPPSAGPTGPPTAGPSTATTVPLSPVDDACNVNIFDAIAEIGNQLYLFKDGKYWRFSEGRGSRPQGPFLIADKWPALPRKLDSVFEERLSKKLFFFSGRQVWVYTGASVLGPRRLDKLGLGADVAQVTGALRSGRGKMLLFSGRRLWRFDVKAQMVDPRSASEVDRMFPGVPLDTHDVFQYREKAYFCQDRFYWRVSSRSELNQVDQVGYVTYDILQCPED
Chain of Disintegrin and metalloproteinase domain-containing protein 17 (Homo sapiens, UniProt P78536) (P78536 whole entry, the tested form may be a part): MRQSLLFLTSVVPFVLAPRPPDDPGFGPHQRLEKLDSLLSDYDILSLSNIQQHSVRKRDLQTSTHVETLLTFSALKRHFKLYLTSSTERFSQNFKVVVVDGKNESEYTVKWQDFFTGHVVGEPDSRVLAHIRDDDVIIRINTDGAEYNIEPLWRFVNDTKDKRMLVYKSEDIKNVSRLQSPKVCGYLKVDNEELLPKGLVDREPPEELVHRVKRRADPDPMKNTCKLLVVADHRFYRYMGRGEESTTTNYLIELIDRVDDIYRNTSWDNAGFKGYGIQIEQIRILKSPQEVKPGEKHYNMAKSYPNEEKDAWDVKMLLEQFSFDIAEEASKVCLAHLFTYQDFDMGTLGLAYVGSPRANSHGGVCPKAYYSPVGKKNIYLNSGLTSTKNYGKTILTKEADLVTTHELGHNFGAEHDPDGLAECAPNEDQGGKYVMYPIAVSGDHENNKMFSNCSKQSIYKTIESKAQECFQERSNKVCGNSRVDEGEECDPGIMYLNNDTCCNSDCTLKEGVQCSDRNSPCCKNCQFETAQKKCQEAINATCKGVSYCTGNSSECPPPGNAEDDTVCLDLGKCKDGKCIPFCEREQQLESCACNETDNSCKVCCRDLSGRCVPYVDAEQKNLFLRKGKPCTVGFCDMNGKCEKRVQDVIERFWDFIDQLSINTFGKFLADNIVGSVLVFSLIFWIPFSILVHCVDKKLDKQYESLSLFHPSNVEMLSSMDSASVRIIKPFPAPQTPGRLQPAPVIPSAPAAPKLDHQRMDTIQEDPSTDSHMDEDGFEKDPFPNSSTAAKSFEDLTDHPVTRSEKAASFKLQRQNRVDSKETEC

Row | SMILES | pIC50 [1] | pKi [2] | pKi (Interstitial collagenase) | pIC50 [3] | pKi [4]
1 | Cc1cc(COc2ccc(N3CC[C@H]([C@@H](C(=O)NO)N(C)C)C3=O)cc2)c2ccccc2n1 | 5.82 | < 5.70 | < 5.30 | 8.15 | < 5.52
2 | Cc1cc(COc2ccc(N3CC[C@H]([C@H](N)C(=O)NO)C3=O)cc2)c2ccccc2n1 | 5.77 | 5.71 | < 5.30 | 8.70 | 6.35
3 | Cc1cc(COc2ccc(N3CC[C@](N)(CC(=O)NO)C3=O)cc2)c2ccccc2n1 | 5.32 | < 5.70 | < 5.30 | 8.30 | < 5.52
4 | CC(=O)N[C@H](C(=O)NO)[C@H]1CCN(c2ccc(OCc3cc(C)nc4ccccc34)cc2)C1=O | 5.81 | < 5.70 | < 5.30 | 9.00 | 6.71
5 | Cc1cc(COc2ccc(N3CC[C@@]([C@H](C)C(=O)NO)(N(C)C)C3=O)cc2)c2ccccc2n1 | < 5.52 | 5.89 | < 5.30 | 7.92 | 
6 | Cc1cc(COc2ccc(N3CC[C@H]([C@H](NC(=O)N4CCOCC4)C(=O)NO)C3=O)cc2)c2ccccc2n1 | 6.08 | < 5.70 | < 5.30 | > 9.00 | 6.09
7 | Cc1cc(COc2ccc(N3CC[C@H]([C@@H](C(=O)NO)N4CCCC4)C3=O)cc2)c2ccccc2n1 | < 5.00 | < 5.70 | < 5.30 | 7.59 | < 5.52
8 | Cc1cc(COc2ccc(N3CC[C@H]([C@@H](C)C(=O)NO)C3=O)cc2)c2ccccc2n1 | < 5.52 | < 5.70 | < 5.30 | 7.28 | < 5.52
9 | CCC[C@@H](C(=O)NO)[C@H]1CCN(c2ccc(OCc3cc(C)nc4ccccc34)cc2)C1=O |  | < 5.70 | < 5.30 | 6.85 | < 5.52
10 | CCC[C@H](C(=O)NO)[C@@]1(N)CCN(c2ccc(OCc3cc(C)nc4ccccc34)cc2)C1=O | < 5.52 | < 5.70 | < 5.30 | 8.40 | < 5.52
11 | Cc1cc(COc2ccc(N3CC[C@H]([C@H](NC(=O)C(C)(C)C)C(=O)NO)C3=O)cc2)c2ccccc2n1 | 5.31 | < 5.70 | < 5.30 | > 9.00 | 5.91
12 | COC(=O)N[C@H](C(=O)NO)[C@H]1CCN(c2ccc(OCc3cc(C)nc4ccccc34)cc2)C1=O | 5.58 | < 5.70 | < 5.30 | > 9.00 | 6.32
13 | Cc1cc(COc2ccc(N3CC[C@H]([C@H](NC(=O)c4ccccc4)C(=O)NO)C3=O)cc2)c2ccccc2n1 | 5.04 | < 5.70 | < 5.30 | 9.00 | 6.36
14 | Cc1cc(COc2ccc(N3CC[C@](N)([C@H](C)C(=O)NO)C3=O)cc2)c2ccccc2n1 | 5.96 | < 5.70 | < 5.30 | 8.70 | < 5.52
15 | CCCCOC(=O)N[C@H](C(=O)NO)[C@H]1CCN(c2ccc(OCc3cc(C)nc4ccccc34)cc2)C1=O | 5.17 | < 5.70 | < 5.79 | 8.70 | < 6.52
16 | Cc1cc(COc2ccc(N3CC[C@H]([C@H](NC(=O)OC(C)(C)C)C(=O)NO)C3=O)cc2)c2ccccc2n1 | 6.38 | 6.54 | 6.10 | 9.00 | 6.49
17 | Cc1cc(COc2ccc(N3CC[C@H]([C@H](NC(=O)OC(C)(C)C)C(=O)NO)C3=O)cc2)cc(C)n1 | < 5.52 |  | 5.65 | 8.22 | < 5.52
18 | Cc1cc(COc2ccc(N3CC[C@H]([C@H](C)N(O)C=O)C3=O)cc2)c2ccccc2n1 | 5.06 | < 5.70 | < 5.30 | 8.70 | < 5.52
19 | Cc1cc(COc2ccc(N3CC[C@H]([C@H](N)C(=O)NO)C3=O)cc2)cc(C)n1 | < 5.00 | < 5.70 | < 5.30 | 7.30 | < 5.52
20 | Cc1cc(COc2ccc(N3CC[C@H]([C@H](O)C(=O)NO)C3=O)cc2)c2ccccc2n1 | 5.62 | < 5.70 | < 5.30 | 8.52 | < 5.52
21 | Cc1cc(COc2ccc(N3CC[C@H]([C@H](C)C(=O)NO)C3=O)cc2)c2ccccc2n1 | 5.80 | < 5.70 | < 5.30 | 9.00 | < 5.90
22 | CCC[C@@H](C(=O)NO)[C@@]1(N)CCN(c2ccc(OCc3cc(C)nc4ccccc34)cc2)C1=O | < 5.00 | < 5.70 | < 5.30 | 6.39 | < 5.52
23 | C[C@@H]([C@H]1CCN(c2ccc(OCc3ccccc3)cc2)C1=O)N(O)C=O | < 5.00 | < 5.70 | < 5.30 | 6.95 | < 6.25
